Measurements: patent US20200323828A1, “METHODS OF TREATING BEHAVIOR ALTERATIONS” (Oryzon Genomics, S.A., priority 2017, published 2020)

How the values were obtained:
Type in all cases: in vivo
male SAMP8 mice [1] = test: Elevated plus maze (EPM) test in male SAMP8 mice
Description: (§1) Animals (n=8/group) were treated from month 5 of age with vehicle, 0.32 or 0.96 mg/kg/day Compound 1, and by month 7 of treatment they were sequentially submitted to the OF and EPM test at one week intervals.
(§2) Vehicle (1.8% 2-Hydroxypropyl-(3-cyclodextrin, Sigma-Aldrich, Spain) or KDM1A inhibitor (Compound 1) were administered in drinking water. SAMR1 mice treated with vehicle were included as a control (n=8). All drugs were administered via drinking water and diluted in vehicle. Drug concentration was calculated weekly in function of body weight and corrected in function of drinking water consumption.
(§3) Elevated Plus Maze (EPM): The EPM consisted of four arms at right angles to each other connected to a central square and maintained elevated 50 cm above the floor. Two of the opposite arms had high walls (enclosed arms, 30×5×15 cm), whereas the other two were open arms (30×5×0 cm). The animal was placed facing a closed arm, and its movements were video-recorded for 5 min and analyzed by video-tracking using SMART® (v3.0, PanLab, SLU, Spain).
(§4) Statistical analysis: SAMR1 and SAMP8 vehicle groups were compared by t-Test. Among the SAMP8 groups, different treatments were compared by oneway-ANOVA with Dunnet and SNK post-Hoc analysis.

male SAMP8 mice [2] = test: Resident-intruder (RI) test in male SAMP8 mice (aggressive behavior)
Description: In this study, male SAMP8 animals were treated either with vehicle (n=5), 0.32 (n=8) or 0.96 (n=8) mg/kg/day of Compound 1 for 5 weeks from month 5 of age and then subjected to the RI test. Vehicle (1.8% 2-Hydroxypropyl-β-cyclodextrin, Sigma-Aldrich, Spain) or Compound 1 were administered in drinking water. SAMR1 mice treated with vehicle were included as a control (n=6). All drugs were administered via drinking water and diluted in vehicle. Drug concentration was calculated weekly in function of body weight and corrected in function of drinking water consumption.
The resident-intruder (RI) test was performed as follows: the test subject (resident) was maintained in its home cage without bedding changes for one week. […] The session (20 min) was video-recorded and social interaction (parameters tested: social interaction and rearings) and aggressive behavior (parameters tested: lateral threats, clinch attacks, keep-down behavior, and total attacks as the sum of all three aggressive behavior parameters measured) of the test subject were analyzed by an experimenter blind to the treatment.
as §4

[3] = system: isolated Sprague-Dawley male rats; test: Elevated plus maze (EPM) test in the rat isolation rearing model; details: 0.16 or 0.48 mg/kg/day in drinking water
Description: (§5) Right after the weaning (post natal day 21-23), 48 Sprague-Dawley male rats were divided in two groups: Control (Non Isolated; n=12), maintained 3-4 animals per cage; Isolated (n=36), 1 animal per cage. Starting on postnatal day (PND) 61, adult isolated male rats were treated with vehicle, Compound 1 at 0.16 mg/kg/day or Compound 1 at 0.48 mg/kg/day (n=12/group) for 5 weeks. Control (non-isolated) animals were treated with vehicle. The administration route was drinking water and the vehicle 1.8% 2-hydroxypropyl-β-cyclodextrin. Drug concentration was adjusted weekly by body weight and water consumption. During the last week of treatment, all animals were tested in the RI (PND94) to evaluate social behavior and, on a different day, in the EPM test (PND87-88) to evaluate anxiety behavior.
as §3, with “The elevated plus maze (EPM) test was perfomed following a similar protocol to that described for mice in Example 3 above, as follows:” for “Elevated Plus Maze (EPM):”, “46.5×12×42” for “30×5×15”, “(46.5×12×0.3” for “(30×5×0”, “(v2.5.21,” for “(v3.0,”, “Spain). […]” for “Spain).”

[4] = system: isolated Sprague-Dawley male rats; test: Resident-intruder (RI) test in the rat isolation rearing model (social withdrawal)
Text: In this model, rats are isolated after weaning on postnatal day 21 (PND21) and deprived of the normal environment that preconditions their social behavior. Isolation in this phase of the development of the rat may lead to behavior alterations, particularly a lack of interest for social interactions, which can be used as a model for human social withdrawal.
as §5
The resident-intruder (RI) test was performed following a similar protocol to that described for mice in Example 3 above, as follows: Briefly, the test subject (resident) was maintained in its home cage without bedding changes for one week. […] The session was video-recorded during 15 min, and social interaction (parameters measured: active and passive social interaction, avoidance and time without social interaction) and aggressive behavior of the test subject were analyzed by an experimenter blind to the treatment.
Statistical analysis: Non Isolated and Isolated vehicle groups were compared by t-Test. Among the Isolated groups, different drug treatments were compared by oneway-ANOVA with Dunnet and SNK post-Hoc analysis.

male SAMP8 mice [5] = test: Open field (OF) test in male SAMP8 mice; details: 0.32 or 0.96 mg/kg/day in drinking water
Description: as §1, §2
Open Field (OF): A 50×50-cm white plastic arena with 25-cm-high walls was used to analyze spontaneous exploratory behavior. The floor of the apparatus was divided into 25 equal squares. The movements of each animal were video recorded during 5 min. Locomotor activity was analyzed by video-tracking over the captured images using SMART® (v3.0, PanLab, SLU, Spain).
as §4

female SAMP8 mice = test: Three chamber test (TCT) in female SAMP8 mice; details: 0.96 mg/kg/day in drinking water for 4 months
Text: In this test, after adaptation to the thee-chamber arena, a mouse is released into the middle chamber and allowed to explore the other compartments. In the adjacent ‘mouse’ compartment a docile stimulus mouse is situated in a mesh-wire container, while in the other adjacent compartment a similar container is located without stimulus mouse (object compartment). The propensity to approach or avoid the compartment with the stimulus mouse provides a measure of social interaction behavior/sociability. Wild type mice prefer social interaction and spend more time in the mouse compartment in comparison to the object compartment.
In this study, 8-month old female SAMP8 mice were treated either with vehicle (n=9) or 0.96 mg/kg/day of Compound 1 (n=12) for 4 months and then subjected to the TCT. […] Drug concentration was calculated weekly in function of body weight and corrected in function of drinking water consumption.
The TCT was performed in a Plexiglas transparent box with three identical consecutive chambers (15×15×20 cm) with two identical small metallic cages placed in both lateral chambers. […] This habituation time was monitored to avoid animals showing preference for one of the chambers. […] The time spent in each chamber and the time of direct exploration of the novel mice was measured during a total observation time of 10 minutes. […]

## Nc1nnc(CN[C@@H]2C[C@H]2c2ccc(OCc3ccccc3)cc2)o1 [Compound 1, 5-((((1R,2S)-2-(4-(benzyloxy)phenyl)cyclopropyl)amino)methyl)-1,3,4-oxadiazol-2-amine]
Male SAMP8 mice [1]; conclusion from OF and EPM tests in SAMP8 mice
  anxiolytic or sedative activity: did not have anxiolytic or sedative activity
Male SAMP8 mice [1]; male SAMP8 mice, 0.32 or 0.96 mg/kg/day in drinking water
  time in the open arms of the EPM: not significantly modified
Male SAMP8 mice [2]; male SAMP8 mice, 0.32 or 0.96 mg/kg/day in drinking water for 5 weeks, vs vehicle-treated SAMR1, FIG. 1
  number of total attacks: lowered the number of attacks in SAMP8 mice to SAMR1 levels
Male SAMP8 mice [2]; male SAMP8 mice, 0.32 or 0.96 mg/kg/day in drinking water for 5 weeks, vs vehicle-treated SAMR1, FIG. 2
  number of clinch attacks: lowered the number of attacks in SAMP8 mice to SAMR1 levels
Male SAMP8 mice [2]; mice, 0.32 or 0.96 mg/kg/day in drinking water
  tolerability of doses on long-term treatment: well-tolerated
[3]
  effect on anxiety or locomotor activity: did not produce any significant effect
[4]; isolated rats, 0.16 or 0.48 mg/kg/day in drinking water for 5 weeks, vs non-isolated rats, FIG. 4
  number of evitations: restored to normality
[4]; isolated rats, 0.16 or 0.48 mg/kg/day in drinking water for 5 weeks, FIG. 3
  time without social interaction: dose dependently reduced
[4]; rats, 0.16 or 0.48 mg/kg/day in drinking water
  tolerability of doses on long-term treatment: well-tolerated
Male SAMP8 mice [5]
  locomotor activity: nor did treatment with Compound 1 significantly affect locomotor activity
Female SAMP8 mice; vs SAMR1, FIG. 5
  preference for the socialization chamber (mice chamber) over the Object chamber: restored
Female SAMP8 mice; vs SAMR1, FIG. 6
  time spent exploring a novel mouse: restored
